± gives the expanded uncertainty stated by the source.
What was measured:
[1] = xn = mol fraction of the nth substance listed; conditions: 298.15 K, 101 kPa, Liquid
[2] = refractive index (Na D-line) (dimensionless); xn = mol fraction of the nth substance listed; conditions: 298.15 K, 101 kPa, Liquid
[3] = Liquid
[4] = refractive index (Na D-line) (dimensionless); conditions: 298.15 K; 101.33 kPa; Liquid

CCC(C)(C)O [2-methylbutan-2-ol] + CCOC(C)=O
Conditions	mass density, [1] [kg/m3]	refractive index, [2]	viscosity, [1] [mPa·s]
x1 = 0.0279	891.15 ± 0.54	1.3711 ± 0.0007	0.464 ± 0.008
x1 = 0.0573	887.59 ± 0.53	1.3723 ± 0.0007	0.508 ± 0.008
x1 = 0.096	883.06 ± 0.53	1.3739 ± 0.0007	0.567 ± 0.009
x1 = 0.1672	874.97 ± 0.52	1.3767 ± 0.0006	0.691 ± 0.01
x1 = 0.2475	866.39 ± 0.51	1.3798 ± 0.0006	0.85 ± 0.011
x1 = 0.3322	857.83 ± 0.5	1.383 ± 0.0006	1.041 ± 0.014
x1 = 0.4168	849.81 ± 0.5	1.3861 ± 0.0006	1.261 ± 0.016
x1 = 0.4994	842.59 ± 0.49	1.3891 ± 0.0006	1.503 ± 0.019
x1 = 0.5831	835.67 ± 0.49	1.3919 ± 0.0006	1.776 ± 0.022
x1 = 0.6658	829.16 ± 0.48	1.3946 ± 0.0006	2.078 ± 0.025
x1 = 0.7486	822.86 ± 0.48	1.397 ± 0.0006	2.412 ± 0.028
x1 = 0.8336	816.62 ± 0.48	1.3993 ± 0.0006	2.791 ± 0.032
x1 = 0.9149	810.81 ± 0.48	1.4011 ± 0.0006	3.188 ± 0.037
x1 = 0.9445	808.73 ± 0.48	1.4017 ± 0.0006	3.344 ± 0.038
x1 = 0.9712	806.91 ± 0.48	1.4021 ± 0.0006	3.486 ± 0.04
x1 = 1	804.98 ± 0.47	1.4025 ± 0.0006	3.645 ± 0.041

CC(=O)N(C)C [N,N-dimethylethanamide] + CCC(C)(C)O
x1 = 1
Conditions	mass density [kg/m3]	refractive index	viscosity [mPa·s]
[1]	936.7 ± 0.33	–	0.945 ± 0.012
[2]	–	1.4357 ± 0.0006	–

CC(=O)N(C)C [N,N-dimethylethanamide] + CCOC(C)=O
Conditions	mass density, [1] [kg/m3]	refractive index, [2]	viscosity, [1] [mPa·s]
x1 = 0.0392	896.84 ± 0.53	1.3731 ± 0.0007	0.442 ± 0.007
x1 = 0.0791	898.95 ± 0.52	1.3763 ± 0.0007	0.458 ± 0.008
x1 = 0.156	902.75 ± 0.5	1.3824 ± 0.0006	0.49 ± 0.008
x1 = 0.2331	906.43 ± 0.49	1.3883 ± 0.0006	0.523 ± 0.008
x1 = 0.3109	909.97 ± 0.47	1.3942 ± 0.0006	0.558 ± 0.008
x1 = 0.3875	913.34 ± 0.45	1.3999 ± 0.0006	0.595 ± 0.009
x1 = 0.4646	916.63 ± 0.44	1.4054 ± 0.0006	0.634 ± 0.009
x1 = 0.541	919.8 ± 0.42	1.4106 ± 0.0006	0.674 ± 0.009
x1 = 0.6137	922.68 ± 0.41	1.4153 ± 0.0006	0.713 ± 0.01
x1 = 0.6931	925.71 ± 0.39	1.4201 ± 0.0006	0.757 ± 0.01
x1 = 0.7718	928.62 ± 0.37	1.4246 ± 0.0006	0.803 ± 0.011
x1 = 0.8145	930.15 ± 0.36	1.4269 ± 0.0006	0.828 ± 0.011
x1 = 0.8896	932.81 ± 0.35	1.4307 ± 0.0006	0.874 ± 0.011
x1 = 0.9558	935.14 ± 0.33	1.4338 ± 0.0006	0.916 ± 0.012
x1 = 1	936.7 ± 0.33	1.4357 ± 0.0006	0.945 ± 0.012

CC(=O)N(C)C [N,N-dimethylethanamide]
[3], 298.15 K, 101 kPa
Conditions	mass density [kg/m3]	viscosity [mPa·s]
–	936.7 ± 0.33	0.945 ± 0.012

Conditions	refractive index
[4]	1.4357 ± 0.0006

CCOC(C)=O [ethyl acetate] + CC(=O)N(C)C
x2 = 0
Conditions	mass density [kg/m3]	refractive index	viscosity [mPa·s]
[1]	894.6 ± 0.54	–	0.426 ± 0.007
[2]	–	1.3699 ± 0.0007	–

CCOC(C)=O [ethyl acetate]
[3], 298.15 K, 101 kPa
Conditions	mass density [kg/m3]	viscosity [mPa·s]
–	894.6 ± 0.54	0.426 ± 0.007

Conditions	refractive index
[4]	1.3699 ± 0.0007

CCC(C)(C)O [2-methylbutan-2-ol] + CC(=O)N(C)C
Conditions	mass density, [1] [kg/m3]	refractive index, [2]	viscosity, [1] [mPa·s]
x2 = 0	804.98 ± 0.47	1.4025 ± 0.0006	3.645 ± 0.041
x2 = 0.0112	806.65 ± 0.48	1.4031 ± 0.0006	3.6 ± 0.041
x2 = 0.0284	809.1 ± 0.47	1.404 ± 0.0006	3.533 ± 0.04
x2 = 0.0423	810.93 ± 0.47	1.4046 ± 0.0006	3.48 ± 0.04
x2 = 0.0681	814.29 ± 0.47	1.4058 ± 0.0006	3.381 ± 0.039
x2 = 0.1023	818.47 ± 0.46	1.4072 ± 0.0006	3.254 ± 0.037
x2 = 0.1613	825.31 ± 0.45	1.4095 ± 0.0006	3.041 ± 0.035
x2 = 0.2112	830.81 ± 0.44	1.4113 ± 0.0006	2.87 ± 0.033
x2 = 0.253	835.39 ± 0.44	1.4128 ± 0.0006	2.731 ± 0.032
x2 = 0.2912	839.58 ± 0.43	1.4141 ± 0.0006	2.608 ± 0.03
x2 = 0.3366	844.6 ± 0.43	1.4156 ± 0.0006	2.467 ± 0.029
x2 = 0.3844	850.11 ± 0.42	1.4171 ± 0.0006	2.325 ± 0.027
x2 = 0.4203	854.29 ± 0.42	1.4182 ± 0.0006	2.221 ± 0.026
x2 = 0.4743	860.87 ± 0.41	1.4198 ± 0.0006	2.071 ± 0.024
x2 = 0.5864	875.18 ± 0.39	1.423 ± 0.0006	1.78 ± 0.021
x2 = 0.6721	886.7 ± 0.38	1.4254 ± 0.0006	1.578 ± 0.019
x2 = 0.7474	897.47 ± 0.37	1.4276 ± 0.0006	1.413 ± 0.017
x2 = 0.8321	910.06 ± 0.36	1.4302 ± 0.0006	1.242 ± 0.015
x2 = 0.9168	923.22 ± 0.34	1.4329 ± 0.0006	1.086 ± 0.014
x2 = 0.954	929.18 ± 0.34	1.4341 ± 0.0006	1.021 ± 0.013

CCC(C)(C)O [2-methylbutan-2-ol]
[3], 298.15 K, 101 kPa
Conditions	mass density [kg/m3]	viscosity [mPa·s]
–	804.98 ± 0.47	3.645 ± 0.041

Conditions	viscosity [mPa·s]
[3], 303.15 K, 101.33 kPa, Capillary tube (Ostwald / Ubbelohde) method	2.81 ± 0.017

Conditions	refractive index
[4]	1.4025 ± 0.0006

CCOC(C)=O [ethyl acetate] + CCC(C)(C)O
x2 = 0
Conditions	mass density [kg/m3]	refractive index	viscosity [mPa·s]
[1]	894.6 ± 0.54	–	0.426 ± 0.007
[2]	–	1.3699 ± 0.0007	–

From the NIST ThermoML archive (doi:10.1021/je050538q)
